Assay results reported in patent publication US11613527B2, “Enzyme inhibitors” (KalVista Pharmaceuticals Limited, priority 2019, dated 2023).
Values belong to the molecule of their own block, whether it stands above or below them.

Legend:
Assay type in all cases: biochemical
[1] = target: Human plasma kallikrein (Homo sapiens (Human), UniProt P03952); test: Determination of the IC50 for plasma kallikrein (fluorogenic substrate H-DPro-Phe-Arg-AFC); conditions: class symbols A-D, read-out: IC50 (human PKal)
Chain of Human plasma kallikrein (P03952 391-638): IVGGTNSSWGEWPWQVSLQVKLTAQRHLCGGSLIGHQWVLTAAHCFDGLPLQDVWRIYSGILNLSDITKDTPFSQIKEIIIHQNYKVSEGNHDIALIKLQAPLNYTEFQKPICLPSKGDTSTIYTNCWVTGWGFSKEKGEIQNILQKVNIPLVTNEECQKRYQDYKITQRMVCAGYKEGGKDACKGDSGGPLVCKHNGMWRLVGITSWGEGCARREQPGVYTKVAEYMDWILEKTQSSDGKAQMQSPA
Chain of Human plasma kallikrein (P03952 20-390 partner): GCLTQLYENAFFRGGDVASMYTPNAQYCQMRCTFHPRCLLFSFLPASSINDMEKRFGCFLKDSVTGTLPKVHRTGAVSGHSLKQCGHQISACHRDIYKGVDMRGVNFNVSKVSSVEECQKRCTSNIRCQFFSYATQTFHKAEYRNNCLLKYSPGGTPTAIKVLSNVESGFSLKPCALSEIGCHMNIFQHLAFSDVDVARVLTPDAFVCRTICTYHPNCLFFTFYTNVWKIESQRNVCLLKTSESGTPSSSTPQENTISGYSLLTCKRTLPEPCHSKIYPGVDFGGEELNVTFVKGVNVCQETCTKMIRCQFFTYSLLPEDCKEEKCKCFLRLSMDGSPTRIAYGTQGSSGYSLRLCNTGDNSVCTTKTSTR
Experimental: The ability of the compounds of formula (I) to inhibit plasma kallikrein may be determined using the following biological assay:
Determination of the IC50 for Plasma Kallikrein
(§1) Plasma kallikrein inhibitory activity in vitro was determined using standard published methods (see e.g. Johansen et al., Int. J. Tiss. Reac. 1986, 8, 185; Shori et al., Biochem. Pharmacol., 1992, 43, 1209; Sturzebecher et al., Biol. Chem. Hoppe-Seyler, 1992, 373, 1025). Human plasma kallikrein (Protogen) was incubated at 25° C. with the fluorogenic substrate H-DPro-Phe-Arg-AFC and various concentrations of the test compound. Residual enzyme activity (initial rate of reaction) was determined by measuring the change in optical absorbance at 410 nm and the IC50 value for the test compound was determined.

[2] = target: Human FXIa (Homo sapiens (Human), UniProt P03951); test: Determination of the % inhibition for FXIa (fluorogenic substrate Z-Gly-Pro-Arg-AFC; 40 μM or IC50)
Chain of Human FXIa (P03951 388-625): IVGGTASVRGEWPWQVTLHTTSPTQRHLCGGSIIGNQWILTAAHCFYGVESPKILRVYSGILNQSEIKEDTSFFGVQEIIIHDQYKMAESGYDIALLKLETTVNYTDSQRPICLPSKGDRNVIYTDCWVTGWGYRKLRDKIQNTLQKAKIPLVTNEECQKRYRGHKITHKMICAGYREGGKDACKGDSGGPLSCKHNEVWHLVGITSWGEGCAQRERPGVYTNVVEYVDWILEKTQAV
Chain of Human FXIa (P03951 19-387 partner): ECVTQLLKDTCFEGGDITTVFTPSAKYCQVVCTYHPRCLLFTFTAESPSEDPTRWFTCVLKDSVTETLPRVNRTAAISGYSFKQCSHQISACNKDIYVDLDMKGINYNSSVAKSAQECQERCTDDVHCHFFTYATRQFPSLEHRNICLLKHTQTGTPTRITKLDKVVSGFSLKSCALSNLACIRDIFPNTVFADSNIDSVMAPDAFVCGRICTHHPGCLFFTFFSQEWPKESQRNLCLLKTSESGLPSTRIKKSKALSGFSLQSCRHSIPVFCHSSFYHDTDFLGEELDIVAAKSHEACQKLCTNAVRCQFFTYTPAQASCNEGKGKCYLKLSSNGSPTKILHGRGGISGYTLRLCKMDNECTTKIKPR
Experimental: Selected compounds were further screened for inhibitory activity against the related enzyme FXIa. The ability of the compounds of formula (I) to inhibit FXIa may be determined using the following biological assay:
Determination of the % Inhibition for FXIa
FXIa inhibitory activity in vitro was determined using standard published methods (see e.g. Johansen et al., Int. J. Tiss. Reac. 1986, 8, 185; Shori et al., Biochem. Pharmacol., 1992, 43, 1209; Sturzebecher et al., Biol. Chem. Hoppe-Seyler, 1992, 373, 1025). Human FXIa (Enzyme Research Laboratories) was incubated at 25° C. with the fluorogenic substrate Z-Gly-Pro-Arg-AFC and 40 μM of the test compound (or alternatively at various concentrations of the test compound in order to determine IC50). Residual enzyme activity (initial rate of reaction) was determined by measuring the change in optical absorbance at 410 nm and the IC50 value for the test compound was determined.

[3] = target: Human KLK1 (Homo sapiens (Human), UniProt P06870); test: Determination of the IC50 for KLK1 (fluorogenic substrate H-DVal-Leu-Arg-AFC)
Chain of Human KLK1 (P06870 25-262): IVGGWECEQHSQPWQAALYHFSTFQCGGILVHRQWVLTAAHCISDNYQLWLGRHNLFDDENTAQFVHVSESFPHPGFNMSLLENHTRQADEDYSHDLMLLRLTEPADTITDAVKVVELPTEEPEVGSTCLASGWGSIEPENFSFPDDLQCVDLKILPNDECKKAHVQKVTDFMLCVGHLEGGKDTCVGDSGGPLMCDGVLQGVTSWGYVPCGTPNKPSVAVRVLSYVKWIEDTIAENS
Experimental: Selected compounds were further screened for inhibitory activity against the related enzyme KLK1. The ability of the compounds of formula (I) to inhibit KLK1 may be determined using the following biological assay:
Determination of the IC50 for KLK1
as §1, with “KLK1” for “Plasma kallikrein”, “KLK1 (Callbiochem)” for “plasma kallikrein (Protogen)”, “H-DVal-Leu-Arg-AFC” for “H-DPro-Phe-Arg-AFC”

Compound: COCc1nn(Cc2ccc3c(c2)CN(C)C3)cc1C(=O)NCc1c(-n2cnc(C(F)(F)F)n2)ccc(OC)c1F [Example 58, N-({2-fluoro-3-methoxy-6-[3-(trifluoromethyl)-1,2,4-triazol-1-yl]phenyl}methyl)-3-(methoxymethyl)-1-[(2-methyl-1,3-dihydroisoindol-5-yl)methyl]pyrazole-4-carboxamide]
IC50 [1]: < 0.01 µM
IC50 [2]: 17 µM
IC50 [3]: > 40 µM

Compound: COCc1nn(Cc2cnc3c(c2Cl)CCN(C)C3)cc1C(=O)NCc1c(-n2cc(C)nn2)ccc(OC)c1F [Example 64, 1-[(4-chloro-7-methyl-6,8-dihydro-5H-1,7-naphthyridin-3-yl)methyl]-N-{[2-fluoro-3-methoxy-6-(4-methyl-1,2,3-triazol-1-yl)phenyl]methyl}-3-(methoxymethyl)pyrazole-4-carboxamide]
IC50 [1]: 0.03 to 0.1 µM
IC50 [2]: > 40 µM
IC50 [3]: > 40 µM

Compound: COCc1nn(Cc2cnc3c(c2)CCN(C)C3)cc1C(=O)NCc1c(-n2cc(C)nn2)ccc(OC)c1F [Example 102, N-{[2-fluoro-3-methoxy-6-(4-methyl-1,2,3-triazol-1-yl)phenyl]methyl}-3-(methoxymethyl)-1-[(7-methyl-6,8-dihydro-5H-1,7-naphthyridin-3-yl)methyl]pyrazole-4-carboxamide]
IC50 [1]: < 0.01 µM
IC50 [2]: 34.2 µM
IC50 [3]: > 40 µM

Compound: COCc1nn(Cc2ccc3c(c2)CN(C2CC2)CC3)cc1C(=O)NCc1c(-n2cc(C)nn2)ccc(OC)c1F [Example 14, 1-[(2-cyclopropyl-3,4-dihydro-1H-isoquinolin-7-yl)methyl]-N-{[2-fluoro-3-methoxy-6-(4-methyl-1,2,3-triazol-1-yl)phenyl]methyl}-3-(methoxymethyl)pyrazole-4-carboxamide]
IC50 [1]: < 0.01 µM
IC50 [2]: 28.1 µM
IC50 [3]: > 40 µM

Compound: COCc1nn(Cc2ccc3c(c2)CCN(C2CC2)C3)cc1C(=O)NCc1c(-n2ccc(C#N)n2)ccc(OC)c1F [Example 49, N-{[6-(3-cyanopyrazol-1-yl)-2-fluoro-3-methoxyphenyl]methyl}-1-[(2-cyclopropyl-3,4-dihydro-1H-isoquinolin-6-yl)methyl]-3-(methoxymethyl)pyrazole-4-carboxamide]
IC50 [1]: 0.01 to 0.03 µM
IC50 [2]: > 40 µM
IC50 [3]: > 40 µM

Compound: CCN1CCc2cc(Cn3cc(C(=O)NCc4c(-n5ccc(C#N)n5)ccc(OC)c4F)c(COC)n3)ccc2C1 [Example 52, N-{[6-(3-cyanopyrazol-1-yl)-2-fluoro-3-methoxyphenyl]methyl}-1-[(2-ethyl-3,4-dihydro-1H-isoquinolin-6-yl)methyl]-3-(methoxymethyl)pyrazole-4-carboxamide]
IC50 [1]: < 0.01 µM
IC50 [2]: > 40 µM
IC50 [3]: > 40 µM

Compound: CCN1Cc2ccc(Cn3cc(C(=O)NCc4c(-n5cc(C)nn5)ccc(OC)c4F)c(COC)n3)cc2C1 [Example 56, 1-[(2-ethyl-1,3-dihydroisoindol-5-yl)methyl]-N-{[2-fluoro-3-methoxy-6-(4-methyl-1,2,3-triazol-1-yl)phenyl]methyl}-3-(methoxymethyl)pyrazole-4-carboxamide]
IC50 [1]: < 0.01 µM
IC50 [2]: 16.3 µM
IC50 [3]: > 40 µM

Compound: COCc1nn(Cc2ccc3c(c2)CN(C2CC2)CC3)cc1C(=O)NCc1c(-n2cnc(C(F)(F)F)n2)ccc(OC)c1F [Example 20, 1-[(2-cyclopropyl-3,4-dihydro-1H-isoquinolin-7-yl)methyl]-N-({2-fluoro-3-methoxy-6-[3-(trifluoromethyl)-1,2,4-triazol-1-yl]phenyl}methyl)-3-(methoxymethyl)pyrazole-4-carboxamide]
IC50 [1]: 0.01 to 0.03 µM
IC50 [2]: > 40 µM
IC50 [3]: > 40 µM

Compound: COCc1nn(Cc2ccc3c(c2)CCOC3)cc1C(=O)NCc1c(-n2cc(C)nn2)ccc(OC)c1F [Example 68, 1-(3,4-dihydro-1H-2-benzopyran-6-ylmethyl)-N-{[2-fluoro-3-methoxy-6-(4-methyl-1,2,3-triazol-1-yl)phenyl]methyl}-3-(methoxymethyl)pyrazole-4-carboxamide]
IC50 [1]: 0.01 to 0.03 µM
IC50 [2]: > 40 µM
IC50 [3]: > 40 µM

Compound: COCc1nn(Cc2ccc3c(c2)CN(C)CC3)cc1C(=O)NCc1c(-n2ccc(C(F)(F)F)n2)ccc(OC)c1F [Example 8, N-({2-fluoro-3-methoxy-6-[3-(trifluoromethyl)pyrazol-1-yl]phenyl}methyl)-3-(methoxymethyl)-1-[(2-methyl-3,4-dihydro-1H-isoquinolin-7-yl)methyl]pyrazole-4-carboxamide]
IC50 [1]: 0.01 to 0.03 µM
IC50 [2]: > 40 µM
IC50 [3]: > 40 µM

Compound: COCc1nn(Cc2ccc3c(c2)CN(C2CC2)CC3)cc1C(=O)NCc1c(-n2cnc(C(F)F)n2)ccc(OC)c1F [Example 19, 1-[(2-cyclopropyl-3,4-dihydro-1H-isoquinolin-7-yl)methyl]-N-({6-[3-(difluoromethyl)-1,2,4-triazol-1-yl]-2-fluoro-3-methoxyphenyl}methyl)-3-(methoxymethyl)pyrazole-4-carboxamide]
IC50 [1]: < 0.01 µM
IC50 [2]: > 40 µM
IC50 [3]: > 40 µM

Compound: COCc1nn(Cc2ccc3c(c2)CCN(C2CC2)C3)cc1C(=O)NCc1c(-n2cnc(C(F)F)n2)ccc(OC)c1F [Example 47, 1-[(2-cyclopropyl-3,4-dihydro-1H-isoquinolin-6-yl)methyl]-N-({6-[3-(difluoromethyl)-1,2,4-triazol-1-yl]-2-fluoro-3-methoxyphenyl}methyl)-3-(methoxymethyl)pyrazole-4-carboxamide]
IC50 [1]: 0.03 to 0.1 µM
IC50 [2]: > 40 µM
IC50 [3]: > 40 µM

Second part, the molecule after the results:

IC50 [1]: 0.01 to 0.03 µM
IC50 [2]: > 40 µM
IC50 [3]: > 40 µM
Compound: COCc1nn(Cc2ccc3c(c2F)CCN(C)C3)cc1C(=O)NCc1c(-n2cc(C)nn2)ccc(OC)c1F [Example 114, 1-[(5-fluoro-2-methyl-3,4-dihydro-1H-isoquinolin-6-yl)methyl]-N-{[2-fluoro-3-methoxy-6-(4-methyl-1,2,3-triazol-1-yl)phenyl]methyl}-3-(methoxymethyl)pyrazole-4-carboxamide]

IC50 [1]: 0.1 to 1 µM
IC50 [2]: > 40 µM
IC50 [3]: > 40 µM
Compound: COCc1nn(Cc2nc3c(s2)CN(C)CC3)cc1C(=O)NCc1c(-n2cc(C)nn2)ccc(OC)c1F [Example 109, N-{[2-fluoro-3-methoxy-6-(4-methyl-1,2,3-triazol-1-yl)phenyl]methyl}-3-(methoxymethyl)-1-({5-methyl-4H,6H,7H-[1,3]thiazolo[5,4-c]pyridin-2-yl}methyl)pyrazole-4-carboxamide]

IC50 [1]: < 0.01 µM
IC50 [2]: 23.1 µM
IC50 [3]: > 40 µM
Compound: COCc1nn(Cc2ccc3c(c2)CN(C)CC3(F)F)cc1C(=O)NCc1c(-n2cc(C)nn2)ccc(OC)c1F [Example 106, 1-[(4,4-difluoro-2-methyl-1,3-dihydroisoquinolin-7-yl)methyl]-N-{[2-fluoro-3-methoxy-6-(4-methyl-1,2,3-triazol-1-yl)phenyl]methyl}-3-(methoxymethyl)pyrazole-4-carboxamide]

IC50 [1]: 0.1 to 1 µM
IC50 [2]: > 40 µM
IC50 [3]: > 40 µM
Compound: COc1ccc(-n2cc(C)nn2)c(CNC(=O)c2ccn(Cc3ccc4c(c3)CN(C)CC4)c(=O)c2)c1F [Example 159, N-{[2-fluoro-3-methoxy-6-(4-methyl-1,2,3-triazol-1-yl)phenyl]methyl}-1-[(2-methyl-3,4-dihydro-1H-isoquinolin-7-yl)methyl]-2-oxopyridine-4-carboxamide]

IC50 [1]: < 0.01 µM
IC50 [2]: > 4 µM
IC50 [3]: > 4 µM
Compound: COCc1nn(Cc2cc(F)c3c(c2)CCN(C)C3)cc1C(=O)NCc1c(-n2cc(C)nn2)ccc(OC)c1F [Example 116, 1-[(8-fluoro-2-methyl-3,4-dihydro-1H-isoquinolin-6-yl)methyl]-N-{[2-fluoro-3-methoxy-6-(4-methyl-1,2,3-triazol-1-yl)phenyl]methyl}-3-(methoxymethyl)pyrazole-4-carboxamide]

IC50 [1]: < 0.01 µM
IC50 [2]: 30 µM
IC50 [3]: > 40 µM
Compound: COCc1nn(Cc2ccc3c(c2)C(F)(F)CN(C)C3)cc1C(=O)NCc1c(-n2cc(C)nn2)ccc(OC)c1F [Example 105, 1-[(4,4-difluoro-2-methyl-1,3-dihydroisoquinolin-6-yl)methyl]-N-{[2-fluoro-3-methoxy-6-(4-methyl-1,2,3-triazol-1-yl)phenyl]methyl}-3-(methoxymethyl)pyrazole-4-carboxamide]
